Measurements: patent publication USRE49850E1, “N-(pyridin-2-yl)-4-(thiazol-5-yl)pyrimidin-2-amine derivatives as therapeutic compounds” (AUCENTRA THERAPEUTICS PTY LTD, priority 2015, dated 2024)
Where two headings read alike, the source gives them in different places.

Assays:
CDK1B = CDK1B (Homo sapiens, UniProt P06493); assay: Kinase assay CDK1B (radiometric profiling service); type: biochemical; details: apparent Ki calculated from Km (ATP) and IC50; read-out: CDK inhibition Ki CDK1B
Method: (§1) Eurofins Pharma Discovery or Reaction Biology Corporation Kinase Profiler services were used to measure inhibition of CDKs and other kinases by radiometric assay. Inhibition of CDK4/D1, CDK6/D3 and CDK9/T1 were also determined in-house using ADP Glo Kinase assays (Promega Corporation, Madison, USA). Briefly, the kinase reaction for CDK4/D1 and CDK6/D3 was performed with kinase reaction buffer ([…] Tris base pH 7.5, 20 mM MgCl2, 0.4 mM DTT), 0.1 mg/ml BSA and RB-CTF substrate (retinoblastoma protein1 C-terminal fraction). For CDK9/CyclinT1, the kinase reaction was performed with standard assay buffer and Kinase Dilution Buffer and RBER-IRStide substrate. Serial dilutions of 1:3 were prepared for test compounds for 10 concentrations (from 10 μM to 0.5 nM). The kinase reactions were started by addition of ATP, incubated for 40 min at 37° C. and then stopped by adding 10 μL of ADP Glo reagent. After incubation at room temperature in the dark for 40 min, 20 μL of kinase detection reagent was added per well and incubated for 40 min. Luminescence was measured using an EnVision Multilabel plate reader (PerkinElmer, Buckinghamshire, UK). Positive and negative controls were perfonned in the presence and absence of CDK kinases, respectively. Half-maximal inhibition (IC50) values were calculated using a 4-parameter logistic non-linear regression model with Graphpad prism (Version 6.0). Apparent inhibition constants (Ki) values were calculated from Km (ATP) and IC50 values for the respective kinases.

CDK 2A = CDK 2A (Homo sapiens, UniProt P24941); assay: Kinase assay CDK2A (radiometric profiling service); type: biochemical; details: apparent Ki calculated from Km (ATP) and IC50; read-out: CDK inhibition Ki CDK 2A
Method: as §1

CDK4D1 = target: T1, CDK4D1 (Homo sapiens, UniProt P11802); assay: Kinase assay CDK4/D1 (radiometric or ADP Glo); type: biochemical; details: apparent Ki calculated from Km (ATP) and IC50; read-out: CDK inhibition Ki CDK4D1
T1 construct: purchased Eurofins Pharma Discovery or Reaction Biology Corporation (service)
T1 sequence (P11802 whole entry): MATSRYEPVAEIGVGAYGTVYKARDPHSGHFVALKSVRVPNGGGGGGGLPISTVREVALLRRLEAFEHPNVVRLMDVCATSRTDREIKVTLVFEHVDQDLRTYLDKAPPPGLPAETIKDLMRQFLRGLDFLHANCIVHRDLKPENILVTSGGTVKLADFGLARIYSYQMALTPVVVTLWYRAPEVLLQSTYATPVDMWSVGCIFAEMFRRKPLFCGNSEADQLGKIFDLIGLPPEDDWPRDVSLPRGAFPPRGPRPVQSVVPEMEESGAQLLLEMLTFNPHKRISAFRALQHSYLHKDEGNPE
T1 sequence (P24385 whole entry partner): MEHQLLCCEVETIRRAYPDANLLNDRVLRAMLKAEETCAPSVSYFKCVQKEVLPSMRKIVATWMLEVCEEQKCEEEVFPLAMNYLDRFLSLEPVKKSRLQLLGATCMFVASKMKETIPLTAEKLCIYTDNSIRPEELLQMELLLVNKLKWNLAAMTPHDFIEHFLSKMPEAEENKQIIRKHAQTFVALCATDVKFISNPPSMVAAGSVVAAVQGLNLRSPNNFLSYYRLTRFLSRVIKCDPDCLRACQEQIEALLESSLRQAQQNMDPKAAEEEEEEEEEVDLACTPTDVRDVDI
Method: as §1

CDK6D3 = target: T2, CDK6D3 (Homo sapiens, UniProt Q00534); assay: Kinase assay CDK6/D3 (radiometric or ADP Glo); type: biochemical; details: apparent Ki calculated from Km (ATP) and IC50; read-out: CDK inhibition Ki CDK6D3
T2 construct: purchased Eurofins Pharma Discovery or Reaction Biology Corporation (service)
T2 sequence (Q00534 whole entry): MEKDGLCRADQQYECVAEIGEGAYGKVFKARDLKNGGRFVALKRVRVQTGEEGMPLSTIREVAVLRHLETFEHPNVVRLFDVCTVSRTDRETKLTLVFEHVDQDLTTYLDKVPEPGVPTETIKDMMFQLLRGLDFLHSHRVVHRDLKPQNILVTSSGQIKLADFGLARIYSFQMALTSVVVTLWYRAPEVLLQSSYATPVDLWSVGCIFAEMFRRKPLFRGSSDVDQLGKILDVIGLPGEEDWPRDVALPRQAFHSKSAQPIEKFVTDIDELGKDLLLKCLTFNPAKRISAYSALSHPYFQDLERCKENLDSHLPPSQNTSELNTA
T2 sequence (P30281 whole entry partner): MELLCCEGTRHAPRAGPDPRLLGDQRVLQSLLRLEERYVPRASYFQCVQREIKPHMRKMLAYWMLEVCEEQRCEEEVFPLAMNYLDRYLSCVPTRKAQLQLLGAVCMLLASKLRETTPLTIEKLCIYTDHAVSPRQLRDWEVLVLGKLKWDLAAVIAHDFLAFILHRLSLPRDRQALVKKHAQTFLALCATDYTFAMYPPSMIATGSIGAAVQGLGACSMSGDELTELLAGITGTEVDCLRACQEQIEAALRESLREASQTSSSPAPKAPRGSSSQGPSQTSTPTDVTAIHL
Method: as §1

CDK7H = CDK7H (Homo sapiens, UniProt P50613); assay: Kinase assay CDK7H (radiometric profiling service); type: biochemical; details: apparent Ki calculated from Km (ATP) and IC50; read-out: CDK inhibition Ki CDK7H
CDK7H, sequence (P50613 whole entry): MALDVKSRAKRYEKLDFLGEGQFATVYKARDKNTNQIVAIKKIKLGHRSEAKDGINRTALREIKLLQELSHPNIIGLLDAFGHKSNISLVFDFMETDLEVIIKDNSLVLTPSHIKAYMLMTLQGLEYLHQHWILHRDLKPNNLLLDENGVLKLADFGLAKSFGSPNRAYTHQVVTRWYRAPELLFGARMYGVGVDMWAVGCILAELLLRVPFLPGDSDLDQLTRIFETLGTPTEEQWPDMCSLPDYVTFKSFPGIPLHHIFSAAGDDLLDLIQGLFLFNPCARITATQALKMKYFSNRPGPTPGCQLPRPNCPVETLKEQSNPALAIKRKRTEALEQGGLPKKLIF
CDK7H, sequence (P51946 whole entry partner): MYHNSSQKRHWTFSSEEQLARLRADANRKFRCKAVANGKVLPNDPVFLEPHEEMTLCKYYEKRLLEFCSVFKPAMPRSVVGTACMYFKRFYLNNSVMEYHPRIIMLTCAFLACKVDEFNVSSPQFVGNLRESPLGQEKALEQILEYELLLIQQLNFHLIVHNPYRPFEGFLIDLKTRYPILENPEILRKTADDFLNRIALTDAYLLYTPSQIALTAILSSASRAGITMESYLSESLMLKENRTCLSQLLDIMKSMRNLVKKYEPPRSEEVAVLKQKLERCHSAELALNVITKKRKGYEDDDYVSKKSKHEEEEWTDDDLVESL
CDK7H, sequence (P51948 whole entry partner): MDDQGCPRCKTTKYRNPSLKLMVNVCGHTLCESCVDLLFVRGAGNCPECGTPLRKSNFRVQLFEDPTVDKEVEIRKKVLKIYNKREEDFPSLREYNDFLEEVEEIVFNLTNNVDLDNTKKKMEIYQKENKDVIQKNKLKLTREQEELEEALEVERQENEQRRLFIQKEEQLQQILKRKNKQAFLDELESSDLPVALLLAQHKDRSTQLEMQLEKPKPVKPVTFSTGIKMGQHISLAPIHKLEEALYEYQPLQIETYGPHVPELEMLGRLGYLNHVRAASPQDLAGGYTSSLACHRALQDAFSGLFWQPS
Method: as §1

CDK9T1 = target: T3, CDK9T1 (Homo sapiens, UniProt P50750); assay: Kinase assay CDK9/T1 (radiometric or ADP Glo); type: biochemical; details: apparent Ki calculated from Km (ATP) and IC50; read-out: CDK inhibition Ki CDK9T1
T3 construct: purchased Eurofins Pharma Discovery or Reaction Biology Corporation (service)
T3 sequence (P50750 whole entry): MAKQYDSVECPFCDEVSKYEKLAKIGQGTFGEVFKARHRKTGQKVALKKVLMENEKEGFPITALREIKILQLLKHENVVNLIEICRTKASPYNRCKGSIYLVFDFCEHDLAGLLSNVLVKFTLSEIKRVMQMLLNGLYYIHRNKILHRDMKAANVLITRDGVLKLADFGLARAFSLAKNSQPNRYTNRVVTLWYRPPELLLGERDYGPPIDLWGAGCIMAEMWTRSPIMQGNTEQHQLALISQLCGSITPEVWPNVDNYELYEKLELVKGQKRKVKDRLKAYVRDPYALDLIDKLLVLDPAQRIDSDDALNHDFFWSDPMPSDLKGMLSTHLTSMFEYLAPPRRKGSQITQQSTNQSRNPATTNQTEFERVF
T3 sequence (O60563 whole entry partner): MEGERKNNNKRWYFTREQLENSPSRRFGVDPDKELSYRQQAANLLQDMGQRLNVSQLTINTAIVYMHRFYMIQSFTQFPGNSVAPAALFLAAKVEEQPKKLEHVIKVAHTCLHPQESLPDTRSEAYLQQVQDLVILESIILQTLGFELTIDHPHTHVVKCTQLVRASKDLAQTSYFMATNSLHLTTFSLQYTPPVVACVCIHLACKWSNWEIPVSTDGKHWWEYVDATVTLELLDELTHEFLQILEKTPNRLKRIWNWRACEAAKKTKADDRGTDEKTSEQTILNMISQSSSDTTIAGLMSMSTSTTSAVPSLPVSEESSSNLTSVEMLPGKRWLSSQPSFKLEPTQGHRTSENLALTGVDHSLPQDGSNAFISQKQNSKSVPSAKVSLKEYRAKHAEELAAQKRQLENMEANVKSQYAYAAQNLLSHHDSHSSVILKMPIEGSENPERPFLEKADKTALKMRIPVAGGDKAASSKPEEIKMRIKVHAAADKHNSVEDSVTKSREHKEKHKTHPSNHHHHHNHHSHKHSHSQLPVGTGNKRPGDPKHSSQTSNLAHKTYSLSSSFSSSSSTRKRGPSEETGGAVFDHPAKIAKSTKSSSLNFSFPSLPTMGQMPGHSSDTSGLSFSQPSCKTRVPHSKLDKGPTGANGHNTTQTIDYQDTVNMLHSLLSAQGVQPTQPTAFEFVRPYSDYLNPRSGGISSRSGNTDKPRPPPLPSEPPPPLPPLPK
Method: as §1

MV4-11 = assay: Cell viability assay (resazurin, leukemia cell line) MV4-11; type: cell-based, human; details: read-out: Anti-proliferative activity GI50 MV4-11
Source text: (§2) Compounds from Example 1 were subjected to a standard MTT (3-(4,5-dimethylthiazol-2-yl)-2,5-diphenyltetrazolium bromide) and resazurin assays on solid tumour cell lines and leukemia cell lines, respectively, as previously reported (Wang S et al., J Med Chem 47:1662-1675, 2004 and Diab S. et al. CheMedChem 9:962-972, 2014).

MDA-MB-453 = assay: Cell viability assay (MTT, solid tumour cell line) MDA-MB-453; type: cell-based, human; details: read-out: Anti-proliferative activity GI50 MDA-MB-453
Source text: as §2

CDK1B, sequence (P06493 whole entry): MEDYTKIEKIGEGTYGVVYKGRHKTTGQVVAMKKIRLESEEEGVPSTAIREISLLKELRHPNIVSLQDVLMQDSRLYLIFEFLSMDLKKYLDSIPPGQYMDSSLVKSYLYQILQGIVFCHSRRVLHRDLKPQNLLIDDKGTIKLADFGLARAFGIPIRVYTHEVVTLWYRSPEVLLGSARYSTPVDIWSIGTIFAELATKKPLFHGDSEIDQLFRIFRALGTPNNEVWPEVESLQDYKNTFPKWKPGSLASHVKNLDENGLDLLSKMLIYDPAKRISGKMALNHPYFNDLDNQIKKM
CDK1B, sequence (P14635 whole entry partner): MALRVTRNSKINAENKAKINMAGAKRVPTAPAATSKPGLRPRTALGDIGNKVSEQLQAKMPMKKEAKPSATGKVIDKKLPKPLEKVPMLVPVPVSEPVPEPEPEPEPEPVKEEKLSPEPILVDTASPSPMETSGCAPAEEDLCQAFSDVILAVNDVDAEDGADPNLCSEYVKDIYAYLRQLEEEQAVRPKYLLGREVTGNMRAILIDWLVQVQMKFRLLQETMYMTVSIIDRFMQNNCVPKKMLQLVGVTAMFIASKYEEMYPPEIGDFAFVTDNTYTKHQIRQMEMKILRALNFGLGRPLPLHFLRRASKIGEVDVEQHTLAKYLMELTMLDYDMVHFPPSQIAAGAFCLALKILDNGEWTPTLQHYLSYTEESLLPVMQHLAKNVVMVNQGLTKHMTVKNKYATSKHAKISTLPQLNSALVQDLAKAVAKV

| Ki (CDK1B) [nM] | Ki (CDK 2A) [nM] | Ki (CDK4D1) [nM] | Ki (CDK6D3) [nM] | Ki (CDK7H) [nM] | Ki (CDK9T1) [nM] | GI50 (MV4-11; Homo sapiens, MV4-11, 72 h) [nM] | GI50 (MDA-MB-453; Homo sapiens, MDA-MB-453, 72 h) [nM] | Compound | GI50 (MV4-11; 72 h) [nM] | GI50 (MDA-MB-453; 72 h) [nM] |
| --- | --- | --- | --- | --- | --- | --- | --- | --- | --- | --- |
| > 5000 | > 5000 | 81 | 590 | > 5000 | > 5000 | 1100 ± 345 | > 10000 | CC(=O)N1CCN(c2ccc(Nc3nccc(-c4sc(C)nc4C)n3)nc2)CC1 [Compound 1, 1-(4-(6-((4-(2,4-dimethylthiazol-5-yl)pyrimidin-2-yl)amino)pyridin-3-yl)piperazin-1-yl)ethan-1-one] |  |  |
| > 5000 | > 5000 | 31 | 117 | > 5000 | 2040 | 296 ± 287 | 1970 ± 404 | Cc1nc(C)c(-c2nc(Nc3ccc(N4CCNCC4)cn3)ncc2C#N)s1 [Compound 4, 4-(2,4-dimethylthiazol-5-yl)-2-((5-(piperazin-1-yl)pyridin-2-yl)amino)pyrimidine-5-carbonitrile] |  |  |
| > 5000 | > 5000 | 70 | 27 | > 5000 | > 5000 | 500 ± 247 | 914 ± 98 | Cc1nc(C)c(-c2nc(Nc3ccc(N4CCN(C)CC4)cn3)ncc2C#N)s1 [Compound 5, 4-(2,4-dimethylthiazol-5-yl)-2-((5-(4-methylpiperazin-1-yl)pyridin-2-yl)amino)pyrimidine-5-carbonitrile] |  |  |
| > 5000 | 1710 | 59 | 237 | > 5000 | > 5000 | 606 ± 150 | 3860 ± 220 | CCc1nc(C)c(-c2ccnc(Nc3ccc(N4CCNCC4)cn3)n2)s1 [Compound 7, 4-(2-ethyl-4-methylthiazol-5-yl)-N-(5-(piperazin-1-yl)pyridin-2-yl)pyrimidin-2-amine] |  |  |
| > 5000 | 1820 | 24 | 980 | > 5000 | > 5000 | 750 ± 246 | 3010 ± 705 | CCc1nc(C)c(-c2ccnc(Nc3ccc(N4CCN(C)CC4)cn3)n2)s1 [Compound 8, 4-(2-ethyl-4-methylthiazol-5-yl)-N-(5-(4-methylpiperazin-1-yl)pyridin-2-yl)pyrimidin-2-amine] |  |  |
| 3410 | 287 | 10 | 29 | > 5000 | 4180 | 596 ± 231 | > 10000 | Cc1nc(C(C)C)sc1-c1ccnc(Nc2ccc(N3CCN(C)CC3)cn2)n1 [Compound 14, 4-(2-isopropyl-4-methylthiazol-5-yl)-N-(5-(4-methylpiperazin-1-yl)pyridin-2-yl)pyrimidin-2-amine] |  |  |
| 3100 | 465 | 5 | 25 | > 5000 | > 5000 | 63 ± 26 | 542 ± 65 | CCN1CCN(c2ccc(Nc3nccc(-c4sc(C(C)C)nc4C)n3)nc2)CC1 [Compound 15, N-(5-(4-ethylpiperazin-1-yl)pyridin-2-yl)-4-(2-isopropyl-4-methylthiazol-5-yl)pyrimidin-2-amine] |  |  |
| 133 | 37 | 6 | 225 | 67 | 117 | 38 ± 6 |  | CNc1nc(C)c(-c2ccnc(Nc3ccc(N4CCN(Cc5ccccc5)CC4)cc3)n2)s1 [Compound 41, 5-(2-((4-(4-benzylpiperazin-1-yl)phenyl)amino)pyrimidin-4-yl)-N,4-dimethylthiazol-2-amine] |  |  |
| 89 | 17 | 1 | 36 | 101 | 34 | 37 ± 6 |  | CNc1nc(C)c(-c2nc(Nc3ccc(N4CCN(Cc5ccccc5)CC4)cc3)ncc2C#N)s1 [Compound 42, 2-((4-(4-benzylpiperazin-1-yl)phenyl)amino)-4-(4-methyl-2-(methylamino)thiazol-5-yl)pyrimidine-5-carbonitrile] |  |  |

Continued, compound first:

| Compound | Ki (CDK1B) [nM] | Ki (CDK 2A) [nM] | Ki (CDK4D1) [nM] | Ki (CDK6D3) [nM] | Ki (CDK7H) [nM] | Ki (CDK9T1) [nM] | GI50 (MV4-11; Homo sapiens, MV4-11, 72 h) [nM] | GI50 (MDA-MB-453; Homo sapiens, MDA-MB-453, 72 h) [nM] | GI50 (MV4-11; 72 h) [nM] | GI50 (MDA-MB-453; 72 h) [nM] |
| --- | --- | --- | --- | --- | --- | --- | --- | --- | --- | --- |
| 5-(2-((5-(4-Ethylpiperazin-1-yl)pyridin-2-yl)amino)-5-fluoropyrimidin-4-yl)-N,4-dimethylthiazol-2-amine [Compound 32] | > 5000 | 665 | 5 | 20 | > 5000 | 2920 |  |  | 65 ± 2 | 528 ± 46 |
| Cc1nc(C)c(-c2ccnc(Nc3ccc(N4CCNCC4)cn3)n2)s1 [Compound 2, 4-(2,4-dimethylthiazol-5-yl)-N-(5-(piperazin-1-yl)pyridin-2-yl)pyrimidin-2-amine] | > 5000 | > 5000 | 55 | 245 | > 5000 | > 5000 | 1021 ± 7 | > 10000 |  |  |
| Cc1nc(C)c(-c2ccnc(Nc3ccc(N4CCN(C)CC4)cn3)n2)s1 [Compound 3, 4-(2,4-dimethylthiazol-5-yl)-N-(5-(4-methylpiperazin-1-yl)pyridin-2-yl)pyrimidin-2-amine] | > 5000 | 1930 | 30 | 170 | > 5000 | > 5000 | 53 ± 3 | 378 ± 29 |  |  |
| CC(=O)N1CCN(c2ccc(Nc3ncc(C#N)c(-c4sc(C)nc4C)n3)nc2)CC1 [Compound 6, 2-((5-(4-acetylpiperazin-1-yl)pyridin-2-yl)amino)-4-(2,4-dimethylthiazol-5-yl)pyrimidine-5-carbonitrile] | > 5000 | > 5000 | 119 | 201 | > 5000 | > 5000 | 2130 ± 969 | > 10000 |  |  |
| Cc1nc(C(C)C)sc1-c1ccnc(Nc2ccc(N3CCNCC3)cn2)n1 [Compound 13, 4-(2-isopropyl-4-methylthiazol-5-yl)-N-(5-(piperazin-1-yl)pyridin-2-yl)pyrimidin-2-amine] | 3740 | 241 | 11 | 30 | > 5000 | > 5000 | 29 ± 19 | 703 ± 71 |  |  |
| CC(=O)N1CCN(c2ccc(Nc3nccc(-c4sc(C(C)C)nc4C)n3)nc2)CC1 [Compound 16, 1-(4-(6-((4-(2-isopropyl-4-methylthiazol-5-yl)pyrimidin-2-yl)amino)pyridin-3-yl)piperazin-1-yl)ethan-1-one] | 4850 | 246 | 62 | 209 | > 5000 | > 5000 | 457 ± 122 | > 10000 |  |  |
| Cc1nc(C(C)C)sc1-c1ccnc(Nc2ccc(N3CCOCC3)cn2)n1 [Compound 17, 4-(2-isopropyl-4-methylthiazol-5-yl)-N-(5-morpholinopyridin-2-yl)pyrimidin-2-amine] | 1440 | 60 | 1 | 4 | 4690 | 1730 | 649 ± 24 | 1050 ± 203 |  |  |
| CNc1nc(C)c(-c2nc(Nc3ccc(N4CCN(Cc5ccccc5)CC4)cn3)ncc2C#N)s1 [Compound 40, 2-((5-(4-benzylpiperazin-1-yl)pyridin-2-yl)amino)-4-(4-methyl-2-(methylamino)thiazol-5-yl)pyrimidine-5-carbonitrile] | > 5000 | > 5000 | 16 | 36 | > 5000 | 999 | 84 ± 8 |  |  |  |
| CCN1CCN(Cc2ccc(Nc3ncc(F)c(-c4sc(NC5CCCC5)nc4C)n3)nc2)CC1 [Compound 84, N-cyclopentyl-5-(2-((5-((4-ethylpiperazin-1-yl)methyl)pyridin-2-yl)amino)-5-fluoropyrimidin-4-yl)-4-methylthiazol-2-amine] | > 5000 |  | 3 | 14 | 630 | 3570 |  | 622 ± 208 |  |  |
